pIC50: −log10 of the molar value. Active and inactive are the calls of the source.
What was measured:
[1] = biological target: Complement C1s subcomponent (Homo sapiens, UniProt P09871); experiment: Complement C1s ELISA. [Related pubchem assays: 538, 787 ]; assay type: functional
[2] = biological target: E3 ubiquitin-protein ligase Mdm2 (Homo sapiens, UniProt Q00987); experiment: enhancers of MDM2-luciferase reporter signal, concentration-effect titration, project on inhibitors of MDM2 ubiquitin ligase, cellular assay, luminescent readout, 384-well plate format (AID 1394); assay type: functional;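 note: MDM2 E3 inhibitors raise luminescence so EC50 is for signal enhancement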
cells [3] = assay type: functional, cell-based
cells [4] = assay type: functional, cell-based; remark: listed apart in the source
[5] = biological target: T1, Kappa-type opioid receptor (Homo sapiens, UniProt P41145); assay type: functional
Beta-galactosidase = Beta-galactosidase (Escherichia coli, UniProt Q8VNN2); assay type: functional
[6] = biological target: T1, Kappa-type opioid receptor; assay type: functional; remark: listed apart in the source
[7] = Luminescence Cell-Based Dose Retest to Confirm Inhibitors of Cancer Stem Cells. [Related pubchem assays (depositor defined):AID2717, AID2721]; assay type: functional; details: Homo sapiens
Nonstructural protein 1 = Nonstructural protein 1 (Influenza A virus, UniProt Q194T2); assay type: functional, Influenza A virus (A/California/07/2009(H1N1))
[8] = M. tuberculosis growth inhibition, HTS (AID 449762); assay type: functional
[9] = Luminescent dose response cell-based high throughput screening assay for inhibitors of the Janus kinase 2 mutant JAK2V617F. [Related pubchem assays: 1446 (Primary screen.), 1521 (Confirmation assay.), 1486 (Counter screen.)]; assay type: functional
14-3-3 protein gamma = 14-3-3 protein gamma (Homo sapiens, UniProt P61981); experiment: modulators of 14-3-3 gamma client binding – dose response (AID 711); assay type: functional
[10] = biological target: Peroxisome proliferator-activated receptor gamma/Nuclear receptor corepressor 2 (Homo sapiens, UniProt P37231+Q9Y618); experiment: Counterscreen for NR2E3 inverse agonists: TR-FRET-based biochemical high throughput dose response assay to identify inverse agonists of the interaction between peroxisome proliferator-activated receptor gamma (PPARg) and nuclear receptor co-repressor 2 (NCOR2).; assay type: functional
[11] = biological target: Photoreceptor-specific nuclear receptor (Homo sapiens, UniProt Q9Y5X4); experiment: NR2E3 inverse agonists, dose response, biochemical, TR-FRET (AID 463256); assay type: functional
[12] = biological target: RNA-editing ligase 1, mitochondrial (Trypanosoma brucei brucei, UniProt P86926); experiment: TbREL1 ligase inhibitors, dose response, biochemical, fluorescence, Trypanosoma brucei (AID 1117295); assay type: functional
[13] = inhibitors of Vif binding to APOBEC3G peptide, primary screen, biochemical, TR-FRET, GST-Vif 1-94, biotin-A3G peptide, dose response retest (AID 1117319); assay type: functional;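 note: TR-FRET signal of purified GST-Vif binding a biotinylated A3G peptide; inhibitors lower the FRET signal by blocking Vif and A3G binding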
[14] = biological target: Luciferin 4-monooxygenase (Photinus pyralis, UniProt P08659); experiment: firefly luciferase enzyme inhibitors, dose response, biochemical, luminescence (AID 1891)
[15] = Luminescence Cell-Based Dose Confirmation HTS to Identify Inhibitors of Platelet Dense Granule Release. [Related pubchem assays: 1663 (Primary HTS), 1678 (Summary of Project)]; assay type: functional
[16] = Fluorescence Cell-Based Dose Response to Identify Inhibitors of Thrombin Receptor-Activating Peptide SFLLRN-Mediated P-Selectin Induction on Platelets. [Related pubchem assays: 1663 (Primary HTS), 1889 (retest at dose ), 1891 (counterscreen), 1678 (Project Summary)]; assay type: functional
[17] = NIH-3T3 fibroblast cytotoxicity, dose response, cytotoxicity control, cell-based, fluorescence, Alamar Blue, secondary assay (AID 2327); assay type: functional;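 note: NIH-3T3 mouse fibroblasts cultured with fluconazole at 8 µg/mL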
[18] = C. albicans growth with fluconazole, confirmation, fluorescence, retest (AID 2467); assay type: functional, cell-based
Ephrin type-A receptor 4 = Ephrin type-A receptor 4 (Mus musculus, UniProt Q03137); experiment: inhibitors of EphA4 binding to KYL peptide, primary screen, biochemical, colorimetric, mouse EphA4 (AID 689); assay type: functional
Cytochrome P450 1A2 = biological target: T2, Cytochrome P450 1A2 (Homo sapiens, UniProt P05177);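 note: PubChem cytochrome P450 panel assay, CYP1A2 panel member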
T2 sequence (P05177 whole entry): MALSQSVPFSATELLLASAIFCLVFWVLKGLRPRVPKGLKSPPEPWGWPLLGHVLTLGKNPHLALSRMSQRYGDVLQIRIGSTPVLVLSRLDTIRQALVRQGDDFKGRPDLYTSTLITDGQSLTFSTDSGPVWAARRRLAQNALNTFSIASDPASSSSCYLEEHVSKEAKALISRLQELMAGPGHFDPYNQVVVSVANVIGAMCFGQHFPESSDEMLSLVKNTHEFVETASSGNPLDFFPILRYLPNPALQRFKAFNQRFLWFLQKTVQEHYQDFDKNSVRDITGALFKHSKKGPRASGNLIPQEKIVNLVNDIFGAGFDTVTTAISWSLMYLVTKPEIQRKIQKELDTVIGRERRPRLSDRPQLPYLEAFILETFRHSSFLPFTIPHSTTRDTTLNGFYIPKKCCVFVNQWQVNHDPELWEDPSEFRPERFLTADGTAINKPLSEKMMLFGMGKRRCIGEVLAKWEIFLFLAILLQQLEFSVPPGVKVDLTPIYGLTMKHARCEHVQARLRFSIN

Cytochrome P450 2C9 = Cytochrome P450 2C9 (Homo sapiens, UniProt P11712)

T1 sequence (P41145 whole entry): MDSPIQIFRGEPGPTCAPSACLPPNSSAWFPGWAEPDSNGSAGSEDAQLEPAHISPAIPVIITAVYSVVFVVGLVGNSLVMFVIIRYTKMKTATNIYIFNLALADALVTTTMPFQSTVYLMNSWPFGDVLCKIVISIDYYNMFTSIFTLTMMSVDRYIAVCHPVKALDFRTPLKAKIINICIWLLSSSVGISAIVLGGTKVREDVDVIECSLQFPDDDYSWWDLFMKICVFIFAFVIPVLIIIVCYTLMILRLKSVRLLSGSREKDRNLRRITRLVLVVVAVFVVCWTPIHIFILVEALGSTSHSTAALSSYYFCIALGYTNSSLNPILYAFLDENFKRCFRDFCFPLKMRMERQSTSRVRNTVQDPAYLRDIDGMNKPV
Chain of Beta-galactosidase (Q8VNN2 whole entry): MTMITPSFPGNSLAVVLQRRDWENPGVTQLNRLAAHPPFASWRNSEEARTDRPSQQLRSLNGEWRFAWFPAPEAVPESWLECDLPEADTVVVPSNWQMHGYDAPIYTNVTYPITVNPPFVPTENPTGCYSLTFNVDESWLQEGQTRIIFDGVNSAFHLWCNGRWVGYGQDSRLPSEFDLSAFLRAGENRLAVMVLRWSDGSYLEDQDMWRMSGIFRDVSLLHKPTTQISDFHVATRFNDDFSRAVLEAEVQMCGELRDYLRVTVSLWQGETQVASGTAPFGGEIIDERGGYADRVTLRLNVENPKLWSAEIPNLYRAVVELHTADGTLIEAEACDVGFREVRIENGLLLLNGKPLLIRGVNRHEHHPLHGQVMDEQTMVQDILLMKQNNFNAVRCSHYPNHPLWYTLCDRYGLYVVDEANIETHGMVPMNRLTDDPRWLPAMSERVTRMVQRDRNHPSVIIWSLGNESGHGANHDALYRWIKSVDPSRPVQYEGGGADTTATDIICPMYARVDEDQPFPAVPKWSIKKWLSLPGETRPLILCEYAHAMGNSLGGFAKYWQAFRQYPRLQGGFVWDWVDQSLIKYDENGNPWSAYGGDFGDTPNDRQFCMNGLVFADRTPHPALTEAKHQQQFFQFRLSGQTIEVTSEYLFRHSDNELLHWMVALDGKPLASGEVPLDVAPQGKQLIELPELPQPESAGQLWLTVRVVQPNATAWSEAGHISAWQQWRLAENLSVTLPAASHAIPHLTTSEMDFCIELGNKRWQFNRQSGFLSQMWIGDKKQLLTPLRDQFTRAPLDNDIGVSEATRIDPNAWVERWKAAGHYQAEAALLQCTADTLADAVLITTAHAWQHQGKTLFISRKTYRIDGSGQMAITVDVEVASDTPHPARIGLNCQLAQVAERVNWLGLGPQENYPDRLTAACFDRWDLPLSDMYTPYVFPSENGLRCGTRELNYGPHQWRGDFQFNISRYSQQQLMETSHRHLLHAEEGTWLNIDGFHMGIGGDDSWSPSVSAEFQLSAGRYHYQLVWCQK
Chain of Peroxisome proliferator-activated receptor gamma/Nuclear receptor corepressor 2 (P37231 whole entry): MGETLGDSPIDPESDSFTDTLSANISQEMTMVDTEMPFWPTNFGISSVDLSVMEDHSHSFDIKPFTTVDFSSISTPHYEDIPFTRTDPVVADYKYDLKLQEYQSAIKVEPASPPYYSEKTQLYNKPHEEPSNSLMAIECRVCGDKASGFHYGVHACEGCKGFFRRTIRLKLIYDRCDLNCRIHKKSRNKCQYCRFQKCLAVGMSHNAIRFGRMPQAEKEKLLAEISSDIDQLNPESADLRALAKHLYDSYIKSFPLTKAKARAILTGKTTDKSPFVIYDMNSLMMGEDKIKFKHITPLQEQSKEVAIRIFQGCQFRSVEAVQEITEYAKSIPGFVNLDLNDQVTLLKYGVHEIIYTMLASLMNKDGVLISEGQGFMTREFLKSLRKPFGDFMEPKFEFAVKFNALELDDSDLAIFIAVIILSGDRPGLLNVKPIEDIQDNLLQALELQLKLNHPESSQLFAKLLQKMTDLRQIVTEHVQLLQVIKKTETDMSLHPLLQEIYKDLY
Chain of Peroxisome proliferator-activated receptor gamma/Nuclear receptor corepressor 2 (Q9Y618 whole entry): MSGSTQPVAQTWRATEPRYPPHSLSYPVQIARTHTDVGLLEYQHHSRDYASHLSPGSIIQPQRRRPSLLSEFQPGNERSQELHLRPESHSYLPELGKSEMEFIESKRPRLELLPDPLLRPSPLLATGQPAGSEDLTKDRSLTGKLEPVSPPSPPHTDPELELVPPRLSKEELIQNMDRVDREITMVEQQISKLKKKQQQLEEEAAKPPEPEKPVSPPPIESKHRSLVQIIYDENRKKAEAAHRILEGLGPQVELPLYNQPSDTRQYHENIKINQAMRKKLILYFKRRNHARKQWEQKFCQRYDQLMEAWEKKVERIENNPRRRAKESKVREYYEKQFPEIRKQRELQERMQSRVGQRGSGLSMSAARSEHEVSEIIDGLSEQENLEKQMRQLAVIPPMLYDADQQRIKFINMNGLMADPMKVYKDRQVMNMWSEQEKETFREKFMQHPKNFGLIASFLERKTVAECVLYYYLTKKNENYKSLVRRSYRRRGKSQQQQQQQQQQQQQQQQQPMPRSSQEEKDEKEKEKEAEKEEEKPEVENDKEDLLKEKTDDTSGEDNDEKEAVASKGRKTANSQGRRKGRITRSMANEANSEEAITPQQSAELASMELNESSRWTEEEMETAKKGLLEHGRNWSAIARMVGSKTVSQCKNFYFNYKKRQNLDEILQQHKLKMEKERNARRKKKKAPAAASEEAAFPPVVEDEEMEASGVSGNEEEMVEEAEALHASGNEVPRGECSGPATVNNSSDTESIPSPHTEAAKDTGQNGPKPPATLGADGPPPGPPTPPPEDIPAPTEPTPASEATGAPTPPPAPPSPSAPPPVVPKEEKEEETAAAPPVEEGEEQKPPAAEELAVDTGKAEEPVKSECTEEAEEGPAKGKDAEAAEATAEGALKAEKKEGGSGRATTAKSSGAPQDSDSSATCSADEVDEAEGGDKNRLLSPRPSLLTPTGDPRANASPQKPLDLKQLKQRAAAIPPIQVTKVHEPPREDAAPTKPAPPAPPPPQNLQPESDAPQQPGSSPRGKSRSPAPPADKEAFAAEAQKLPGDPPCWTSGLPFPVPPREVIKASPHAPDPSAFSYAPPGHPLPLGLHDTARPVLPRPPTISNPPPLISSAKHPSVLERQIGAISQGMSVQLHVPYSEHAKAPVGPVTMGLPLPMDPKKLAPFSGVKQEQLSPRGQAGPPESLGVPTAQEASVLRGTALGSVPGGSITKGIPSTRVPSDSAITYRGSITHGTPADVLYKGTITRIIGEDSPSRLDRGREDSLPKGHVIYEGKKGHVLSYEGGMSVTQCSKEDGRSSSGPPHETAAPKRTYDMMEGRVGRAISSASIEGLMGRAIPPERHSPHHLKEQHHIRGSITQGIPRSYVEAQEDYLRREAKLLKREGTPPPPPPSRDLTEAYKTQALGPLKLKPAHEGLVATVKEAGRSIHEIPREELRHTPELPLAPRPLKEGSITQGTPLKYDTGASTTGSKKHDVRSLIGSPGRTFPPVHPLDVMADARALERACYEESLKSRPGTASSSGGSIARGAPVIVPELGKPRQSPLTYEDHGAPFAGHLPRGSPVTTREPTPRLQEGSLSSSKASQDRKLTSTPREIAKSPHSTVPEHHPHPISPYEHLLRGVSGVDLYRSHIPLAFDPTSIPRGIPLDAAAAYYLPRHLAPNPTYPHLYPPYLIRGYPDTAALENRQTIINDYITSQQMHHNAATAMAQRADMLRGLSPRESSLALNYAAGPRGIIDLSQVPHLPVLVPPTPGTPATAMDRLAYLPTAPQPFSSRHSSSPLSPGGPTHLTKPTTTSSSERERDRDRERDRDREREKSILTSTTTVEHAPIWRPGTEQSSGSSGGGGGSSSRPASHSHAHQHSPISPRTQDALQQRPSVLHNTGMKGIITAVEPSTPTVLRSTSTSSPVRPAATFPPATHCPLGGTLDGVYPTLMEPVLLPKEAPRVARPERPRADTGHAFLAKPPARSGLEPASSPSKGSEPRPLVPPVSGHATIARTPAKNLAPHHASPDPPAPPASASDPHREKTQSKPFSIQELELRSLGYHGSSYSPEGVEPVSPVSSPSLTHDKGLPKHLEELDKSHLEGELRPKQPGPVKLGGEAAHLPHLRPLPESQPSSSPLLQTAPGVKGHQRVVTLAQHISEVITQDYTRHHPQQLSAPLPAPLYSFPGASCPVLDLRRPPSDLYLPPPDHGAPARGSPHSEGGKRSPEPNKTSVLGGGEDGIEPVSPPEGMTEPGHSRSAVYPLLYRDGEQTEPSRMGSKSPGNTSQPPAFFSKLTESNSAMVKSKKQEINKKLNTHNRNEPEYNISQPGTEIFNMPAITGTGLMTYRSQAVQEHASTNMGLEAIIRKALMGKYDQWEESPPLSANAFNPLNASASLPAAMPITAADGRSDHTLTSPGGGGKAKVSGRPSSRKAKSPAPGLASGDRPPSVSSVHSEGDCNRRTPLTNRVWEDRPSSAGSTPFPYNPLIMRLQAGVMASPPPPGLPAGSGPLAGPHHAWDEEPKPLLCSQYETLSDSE
Chain of Photoreceptor-specific nuclear receptor (Q9Y5X4 whole entry): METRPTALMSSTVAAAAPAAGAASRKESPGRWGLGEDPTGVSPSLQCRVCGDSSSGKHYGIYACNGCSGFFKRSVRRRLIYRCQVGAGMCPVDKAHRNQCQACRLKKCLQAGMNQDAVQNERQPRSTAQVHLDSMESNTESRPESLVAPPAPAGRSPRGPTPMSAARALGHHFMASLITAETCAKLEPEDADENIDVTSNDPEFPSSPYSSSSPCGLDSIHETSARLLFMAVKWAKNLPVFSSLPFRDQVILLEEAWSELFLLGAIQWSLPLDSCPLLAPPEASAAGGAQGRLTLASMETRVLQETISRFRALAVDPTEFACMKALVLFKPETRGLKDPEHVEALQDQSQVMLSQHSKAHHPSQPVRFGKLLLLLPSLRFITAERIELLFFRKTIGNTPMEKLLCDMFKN
Chain of Nonstructural protein 1 (Q194T2 whole entry): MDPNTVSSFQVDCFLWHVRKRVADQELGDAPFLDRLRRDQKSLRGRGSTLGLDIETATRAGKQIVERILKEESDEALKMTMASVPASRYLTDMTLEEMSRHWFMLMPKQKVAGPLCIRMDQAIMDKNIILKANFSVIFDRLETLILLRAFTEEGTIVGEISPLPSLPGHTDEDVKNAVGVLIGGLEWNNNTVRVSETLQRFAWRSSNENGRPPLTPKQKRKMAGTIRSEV

SMILES: O=c1c(-c2ccco2)[n+]([O-])c2ccccc2n1OCc1ccccn1
- IC50 [1]: > 50 µM (not active)

SMILES: O=C(CSC1=NNC(c2ccccn2)S1)Nc1ccc(C(F)(F)F)cc1 (centres undefined)
- EC50 [2]: 43.2 µM (not active)
- EC50 (cells [3]): 15.6 µM (active)
- EC50 (cells [4]): > 350 µM (not active)
- IC50 [5]: > 31.5 µM (inactive)
- EC50 (Beta-galactosidase): > 31.5 µM (inactive)
- pIC50 [6]: < 4.49
- AC50 [7]: 3.51 µM (active)
- IC50 (Nonstructural protein 1): 7.8 µM (active)

SMILES: CC1(c2ccc(Cl)c(Cl)c2)N=C(S)N2C1N=C(S)N2c1ccccc1 (centres undefined)
- IC50 [8]: > 100 µM (active)

SMILES: O=S(=O)(c1cnc(Cl)c(Cl)c1)N1CCc2ccccc21
- IC50 [9]: 3.96 µM (active)

SMILES: CNC(=O)C(Sc1ccccc1)c1ccccc1 (centres undefined)
- IC50 (14-3-3 protein gamma): > 50 µM (not active)

SMILES: O=C(Nc1nccs1)c1cc(-c2ccccn2)nc2c(Cl)cccc12
- IC50 [10]: 2.89 µM (active)
- IC50 [11]: 3.87 µM (active)

SMILES: Clc1ccc(CN=C(Nc2ccccc2)NC2CCCCC2)cc1
- IC50 [12]: > 96.6 µM (inactive)

SMILES: Cc1noc(C)c1C(=O)N1CCc2ccccc2C1
- IC50 [13]: > 100 µM (active)

SMILES: COc1ccc(C(=O)Nc2ccc(N3CCOCC3)cc2)cc1OC
- EC50 [14]: 24.2 µM (active)
- EC50 [15]: 1.95 µM (active)
- EC50 [16]: > 100 µM (not active)

SMILES: O=C(O)c1ccccc1C(=O)NNc1ccc(F)cc1
- EC50 [17]: 25.5 µM (active)
- EC50 [18]: > 38 µM (not active)
- IC50 (Ephrin type-A receptor 4): > 100 µM (not active)
- AC50 (Cytochrome P450 1A2): 20 µM (inconclusive)
- AC50 (Cytochrome P450 2C9): 0.0251 µM (inconclusive)

— ChEMBL document CHEMBL1201862, “PubChem BioAssay data set” (2004)
